Tests used:
[1] = Effective permeability of the compound measured after 5 hrs by PAMPA; format: ADME; conditions: read-out: Peff
[2] = target: Phosphatidylinositol 4,5-bisphosphate 3-kinase catalytic subunit gamma isoform (Homo sapiens, UniProt P48736); assay: Inhibition of PI3Kgamma (unknown origin) using PIP2 as substrate measured after 1 hr by Kinase-Glo luminescence assay
U-87 MG = assay: Antiproliferative activity against human U87MG cells after 4 days by Celltiter-Glo luminescence cell viability assay; format: functional, cell-based, U-87MG ATCC; conditions: 96 h

Phosphatidylinositol 4,5-bisphosphate 3-kinase catalytic subunit gamma isoform, sequence (P48736 whole entry, canonical isoform): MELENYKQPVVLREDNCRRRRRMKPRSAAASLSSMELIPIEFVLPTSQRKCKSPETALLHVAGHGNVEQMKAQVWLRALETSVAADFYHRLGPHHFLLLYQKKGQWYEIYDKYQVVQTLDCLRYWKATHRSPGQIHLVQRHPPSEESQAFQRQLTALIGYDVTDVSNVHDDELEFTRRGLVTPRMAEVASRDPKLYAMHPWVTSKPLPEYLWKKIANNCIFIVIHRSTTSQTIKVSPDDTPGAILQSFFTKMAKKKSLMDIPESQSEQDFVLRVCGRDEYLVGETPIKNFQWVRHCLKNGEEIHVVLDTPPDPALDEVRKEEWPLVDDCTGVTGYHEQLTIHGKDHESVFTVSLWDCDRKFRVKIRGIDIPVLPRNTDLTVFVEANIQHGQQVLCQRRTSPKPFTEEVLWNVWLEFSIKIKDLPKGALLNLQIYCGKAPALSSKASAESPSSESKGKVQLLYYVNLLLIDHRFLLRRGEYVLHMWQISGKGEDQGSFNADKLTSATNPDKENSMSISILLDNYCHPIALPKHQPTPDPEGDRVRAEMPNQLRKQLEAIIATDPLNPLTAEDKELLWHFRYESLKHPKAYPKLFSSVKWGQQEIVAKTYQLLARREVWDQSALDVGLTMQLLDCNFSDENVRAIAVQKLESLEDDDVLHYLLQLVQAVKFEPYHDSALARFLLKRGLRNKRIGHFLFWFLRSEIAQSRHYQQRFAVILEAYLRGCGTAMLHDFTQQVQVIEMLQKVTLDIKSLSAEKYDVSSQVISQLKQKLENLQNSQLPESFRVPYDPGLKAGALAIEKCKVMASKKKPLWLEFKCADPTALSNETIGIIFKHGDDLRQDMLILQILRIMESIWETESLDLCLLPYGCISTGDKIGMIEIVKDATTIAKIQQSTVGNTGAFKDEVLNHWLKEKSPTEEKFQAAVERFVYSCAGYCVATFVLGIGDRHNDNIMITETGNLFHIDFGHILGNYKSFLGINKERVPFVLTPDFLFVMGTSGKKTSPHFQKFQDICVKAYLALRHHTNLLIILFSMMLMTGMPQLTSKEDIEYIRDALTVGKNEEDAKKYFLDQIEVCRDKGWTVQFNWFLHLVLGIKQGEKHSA

Q: Which results are given for COc1ncc(-c2cc3c(C)nc(NC(C)=O)nc3s2)cc1NS(=O)(=O)c1ccc(F)cc1F?
A: Papp at 5 h [1]: 9.6 ×10⁻⁶ cm/s; IC50 [2]: 11 nM

Q: Which IC50 (U-87 MG) does the source give for COc1ccc(-c2cc3c(C)nc(N)nc3n([C@H]3CC[C@H](OCCO)CC3)c2=O)cn1 [PF-04691502] here?
A: The IC50 was 340 nM.

Q: With COc1ncc(-c2cc3c(C)nc(N)nc3s2)cc1NS(=O)(=O)c1ccc(F)cc1F as the molecule, how does the Papp at 5 h [1] read?
A: The Papp at 5 h was 4.8 ×10⁻⁶ cm/s.

From ChEMBL document CHEMBL4219058, “Discovery of new thienopyrimidine derivatives as potent and orally efficacious phosphoinositide 3-kinase inhibitors” (Bioorg Med Chem, 2018)
